pEC50: −log10 of the molar value.
System: HBV
Assay: HBV replication inhibition assay (BDNA assay)
Type: cell-based
Settings: Hepatitis B virus, HepG2.2.15, 144 h, HepG2.2.15 cells, incubated with compound for 6 days, encapsidated HBV DNA from supernatant detected by branched DNA QuantiGene assay
Protocol: HBV replication inhibition by the disclosed compounds were determined in cells infected or transfected with HBV or cells with stably integrated HBV, such as HepG2.2.15 cells (Sells et al. 1987). In this example, HepG2.2.15 cells were maintained in cell culture medium containing 10% fetal bovine serum (FBS), Geneticin, L-glutamine, penicillin and streptomycin. HepG2.2.15 cells were seeded in 96-well plates at a density of 40,000 cells/well and were treated with serially diluted compounds at a final DMSO concentration of 0.5% either alone or in combination by adding drugs in a checker box format. Cells were incubated with compounds for three days, after which medium was removed and fresh medium containing compounds was added to cells and incubated for another three days. At day 6, supernatant was removed and treated with DNase at 37° C. for 60 minutes, followed by enzyme inactivation at 75° C. for 15 minutes. Encapsidated HBV DNA was released from the virions and covalently linked HBV polymerase by incubating in lysis buffer (Affymetrix QS0010) containing 2.5 μg proteinase K at 50° C. for 40 minutes. HBV DNA was denatured by addition of 0.2 M NaOH and detected using a branched DNA (BDNA) QuantiGene assay kit according to manufacturer recommendation (Affymetrix). HBV DNA levels were also quantified using qPCR, based on amplification of encapsidated HBV DNA extraction with QuickExtraction Solution (Epicentre Biotechnologies) and amplification of HBV DNA using HBV specific PCR probes that can hybridize to HBV DNA and a fluorescently labeled probe for quantitation. In addition, cell viability of HepG2.2.15 cells incubated with test compounds alone or in combination was determined by using CellTitre-Glo reagent according to the manufacturer protocol (Promega). The mean background signal from wells containing only culture medium was subtracted from all other samples, and percent inhibition at each compound concentration was calculated by normalizing to signals from HepG2.2.15 cells treated with 0.5% DMSO using equation E1.
where DMSOave is the mean signal calculated from the wells that were treated with DMSO control (0% inhibition control) and Xi is the signal measured from the individual wells. EC50 values, effective concentrations that achieved 50% inhibitory effect, were determined by non-linear fitting using Graphpad Prism software (San Diego, Calif.) and equation E2.
where Y represents percent inhibition values and X represents the logarithm of compound concentrations.
Selected disclosed compounds were assayed in the HBV replication assay (BDNA assay), as described above, and a representative group of these active compounds is shown in Table 3.

| SMILES | pEC50 |
| --- | --- |
| O=C(Nc1ccc(F)c(C(F)(F)F)c1)N1CCc2nn3c(c2C1)-c1ncccc1CCC3 [Example 28, N-(4-Fluoro-3-(trifluoromethyl)phenyl)-6,7,10,11-tetrahydro-5H-pyrido[2,3-c]pyrido[4′,3′:3,4]pyrazolo[1,5-a]azepine-12(13H)-carboxamide] | 5.74 |
| Cn1cc2c(n1)-c1c3c(nn1CCC2)CCN(C(=O)Nc1ccc(F)c(Cl)c1)C3 [Example 29, N-(3-Chloro-4-fluorophenyl)-2-methyl-4,5,6,9,10,12-hexahydropyrazolo[3,4-c]pyrido[4′,3′:3,4]pyrazolo[1,5-a]azepine-11(2H)-carboxamide] | 5.51 |
| Cn1ncc2c1-c1c3c(nn1CCC2)CCN(C(=O)Nc1ccc(F)c(Cl)c1)C3 [Example 30, N-(3-Chloro-4-fluorophenyl)-1-methyl-4,5,6,9,10,12-hexahydropyrazolo[3,4-c]pyrido[4′3′:3,4]pyrazolo[1,5-a]azepine-11(1H)-carboxamide] | 5.47 |
| O=C(Nc1ccc(F)c(Cl)c1)N1CCc2nn3c(c2C1)-c1nocc1CCC3 [Example 31, N-(3-Chloro-4-fluorophenyl)-5,6,9,10-tetrahydro-4H-isoxazolo[3,4-c]pyrido[4′,3′:3,4]pyrazolo[1,5-a]azepine-11(12H)-carboxamide] | 8.05 |
| O=C(Nc1ccc(F)c(Cl)c1)N1CCc2nn3c(c2C1)-c1oncc1CCC3 [Example 32, N-(3-Chloro-4-fluorophenyl)-5,6,9,10-tetrahydro-4H-isoxazolo[5,4-c]pyrido[4′,3′:3,4]pyrazolo[1,5-a]azepine-11(12H)-carboxamide] | 7.92 |
| N#Cc1cc(NC(=O)N2CCn3nc4c(c3C2)-c2oncc2CCC4)ccc1F [Example 33, N-(3-Cyano-4-fluorophenyl)-5,6,9,10-tetrahydro-4H-isoxazolo[5″,4″:3′,4′]-cyclohepta[1′,2′:3,4]pyrazolo[1,5-a]pyrazine-11(12H)-carboxamide] | 6.10 |
| O=C(Nc1ccc(F)c(C(F)(F)F)c1)N1CCn2nc3c(c2C1)-c1oncc1CCC3 [Example 34] | 6.36 |
| N#Cc1cc(NC(=O)N2CCn3nc4c(c3C2)-c2nocc2CCC4)ccc1F [Example 35, N-(3-Cyano-4-fluorophenyl)-5,6,9,10-tetrahydro-4H-isoxazolo[3″,4″:3′,4′]-cyclohepta[1′,2′:3,4]pyrazolo[1,5-a]pyrazine-11(12H)-carboxamide] | 6.77 |
| O=C(Nc1ccc(F)c(C(F)(F)F)c1)N1CCn2nc3c(c2C1)-c1nocc1CCC3 [Example 36, N-(4-Fluoro-3-(trifluoromethyl)phenyl)-5,6,9,10-tetrahydro-4H-isoxazolo[3″,4″:3′,4′]cyclohepta[1′,2′:3,4]pyrazolo[1,5-a]pyrazine-11(12H)-carboxamide] | 6.74 |
